The record followed here is patent US12570614B2, “Phenyl amino pyrimidine compounds and uses thereof” (GlaxoSmithKline LLC, priority 2007, dated 2026).

Counter-ions that a name gives are not always drawn. Bounds are passed on as bounds.

Assay [1] relates to BaF3 TELJAK cells (BafT_J2). Briefly: Cellular screening, BaF3 TELJAK2 cells (Alamar Blue). Format: cell-based. Particulars: Mus musculus, BaF3; 48-72 hr incubation; read-out: BafT_J2_IC50_μM. On the procedure: (§1) For screening purposes, compounds were diluted in 96 well plates at a concentration of 20 μM. Plates were warmed at 37° C. for 30 minutes before the assay was performed.
A TEL/Jak2 fusion was generated by digestion of the TELPCR product with BamH I/Sal I restriction enzymes, digestion of the JAK2 PCR product with Sal I/Not I restriction enzymes, followed by ligation and subcloning of the ligation product into the mammalian expression Vector pTRE 2 (Clontech), which was prepared by digestion with BamH I—Not I restriction enzymes, to give the TEL/Jak2 fusion plasmid pTELJAK2.
(§2) The growth factor dependent myelomonocytic cell line BaF3 bearing the pTET-off plasmid (Clontech) was transfected with either pTELJAK2 or pTELJAK3, and the transfected cells were selected for growth-factor independent cell growth. The BaF3 wild-type cells were cultured in DMEM containing 10% FCS, 10% WEHI 3B conditioned medium. The BaF3 TELJAK cells ([…]) were cultured in DMEM 10% Tet-System Approved FBS (without WEHI 3B conditioned medium).
(§3) Cell suspensions were prepared by harvesting cells from culture (the cells used in this test were in late log phase growth with high viability.) Cells were diluted in the appropriate growth medium, as described above, to 1.1× final concentration (from 50,000 cell/mL to 200,000 cell/mL, depending on cell line).
Compounds to be tested were added (10 μL, 10× final concentration) to a flat bottomed 96-well plate. The cellular suspension (90 μL per well) was then added, and the plate incubated for 48-72 hr at 37° C., 5% CO2. Alamar Blue 10 μL per well was added and the plates returned to the incubator for a further 4-6 hours.
(§4) Result are given in table 2 where +++ is <1 μM, ++ is <5 μM and + is <20 μM

The target of a further assay is human JAK3 (Homo sapiens (Human), UniProt P52333). Nature of the assay: JAK3 kinase domain Alphascreen enzyme screening. Format: biochemical. The settings on record: read-out: JAK3_ IC50_nM. The protocol: (§5) For screening purposes, compounds (in 100% DMSO) were warmed at 37° C. for at least 20 minutes before use. A […] stock was initially made in assay buffer, where the final concentration of DMSO was 0.3%. The stocks were then diluted in 384 well Optiplates (Packard) where the final concentration of the compound was 5 μM.
The kinase domain of human JAK3 was amplified from U937 mRNA using the polymerase chain reaction with the following primers: […]
The JAK3 PCR products were cloned into the pDest20 destination expression vector (Gibco). The JAK3 plasmid was then transformed into competent DH10Bac cells (Gibco), and the recombinant baculovirus was prepared via Sf9 insect cell transfection.
(§6) Baculovirus preparations from each of the JAK family members were infected into one litre of […] (Spodoptera frugiperda) cells (Invitrogen) grown in SF900II serum free medium (Invitrogen) to a cell density of approximately 2×10^6 cells/ml. Cells were infected with virus at a cell culture to virus stock ratio of 20:1. Cells were harvested and lysed 48 hours post infection. The GST-tagged JAK kinase domains were purified by affinity chromatography on a GSH agarose column (Scientifix).
The compounds were then incubated with substrate in the presence of either […] ATP for 60 or 90 minutes. […] (final concentration 111 μM) or substrate-2 substrate with the sequence biotin-[…] [SEQ ID NO: 16] (final concentration 133 μM). Alphascreen phosphotyrosine acceptor beads followed by streptavidin donor beads at a concentration of 1/100 in stop buffer were added to each well under subdued light and incubated for 2-3 hours. The Alphascreen plates were read on a Packard Fusion Alpha instrument

A further assay addresses human JAK2 (Homo sapiens (Human), UniProt O60674). Nature of the assay: JAK2 kinase domain Alphascreen enzyme screening. Format: biochemical. Particulars: read-out: JAK2_IC50_nM. On the procedure:
as §5
The kinase domain of human JAK2 was amplified from U937 mRNA using the polymerase chain reaction with the following primers: […]
The JAK2 PCR products were cloned into the pDest20 destination vector (Gibco). The JAK2 plasmid was then transformed into competent DH10Bac cells (Gibco), and the recombinant baculovirus was prepared via Sf9 insect cell transfection.
as §6
Alphascreen phosphotyrosine acceptor beads followed by streptavidin donor beads at a concentration of 1/100 in stop buffer were added to each well under subdued light and incubated for 2-3 hours. The Alphascreen plates were read on a Packard Fusion Alpha instrument
In general terms: Bead proximity is the source of the signal in Alpha formats.

The next assay concerns CTLL2. Briefly: Cellular screening, CTLL2 cells (Alamar Blue). Particulars: Mus musculus, CTLL-2; 48-72 hr incubation; read-out: CTLL2_IC50_μM. Format: cell-based. The protocol: as §1, §3
(§7) Compounds to be tested were added (10 μL, 10× final concentration) to a flat bottomed 96-well plate. The cellular suspension (90 μL per well) was then added, and the plate incubated for 48-72 hr at 37° C., 5% CO2. Alamar Blue 10 μL per well was added and the plates returned to the incubator for a further 4-6 hours. The plates were then read at 544 nm.
as §4
For orientation: Resazurin is reduced to fluorescent resorufin, in cell work by metabolically active cells.

A further assay deals with BaF3 wild-type cells. Briefly: Cellular screening, BaF3 wild-type cells (Alamar Blue). Format: cell-based. The settings on record: Mus musculus, 48-72 hr incubation, read-out: BAF3wt_IC50_μM. On the procedure:
as §1, §2, §3, §7, §4

Chain of human JAK3 (P52333 822-1111): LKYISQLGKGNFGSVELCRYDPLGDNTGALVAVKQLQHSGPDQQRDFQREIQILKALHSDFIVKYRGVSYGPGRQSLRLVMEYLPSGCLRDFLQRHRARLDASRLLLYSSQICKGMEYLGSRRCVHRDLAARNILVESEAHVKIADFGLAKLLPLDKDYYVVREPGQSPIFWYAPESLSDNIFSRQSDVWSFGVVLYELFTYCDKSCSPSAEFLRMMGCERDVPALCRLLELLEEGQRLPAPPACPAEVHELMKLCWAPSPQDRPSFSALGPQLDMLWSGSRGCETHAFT
Chain of human JAK2 (O60674 849-1124): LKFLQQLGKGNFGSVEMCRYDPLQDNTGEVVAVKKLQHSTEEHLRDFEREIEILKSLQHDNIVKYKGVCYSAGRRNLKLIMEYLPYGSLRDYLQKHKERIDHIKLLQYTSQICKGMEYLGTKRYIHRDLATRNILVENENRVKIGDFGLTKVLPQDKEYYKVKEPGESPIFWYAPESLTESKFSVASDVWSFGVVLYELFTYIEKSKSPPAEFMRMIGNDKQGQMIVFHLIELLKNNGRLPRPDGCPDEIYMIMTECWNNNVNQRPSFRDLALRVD

With `COc1cc(Nc2nccc(-c3ccc(C(=O)NCC#N)cc3)n2)cc(OC)c1OC` [Compound 20, N-(cyanomethyl)-4-(2-(3,4,5-trimethoxyphenyl-amino)pyrimidin-4-yl)benzamide], the IC50 in assay [1] is less than 1 µM; on human JAK3, less than 0.1 µM; at human JAK2, less than 0.1 µM; with CTLL2 it was less than 5 µM; in the assay with BaF3 wild-type cells, less than 1 µM.

As for `O=C(NCC1CCCO1)c1ccc(-c2ccnc(Nc3ccc(N4CCOCC4)cc3)n2)cc1` (centres unmarked) [Compound 21, 4-(2-(4-morpholinophenyl-amino)pyrimidin-4-yl)-N-((tetrahydrofuran-2-yl)methyl)benzamide], the IC50 is less than 20 µM in assay [1]; less than 0.5 µM on human JAK3; less than 0.5 µM at human JAK2; less than 20 µM in the assay on CTLL2; less than 20 µM in the assay with BaF3 wild-type cells.

Turning to `CS(=O)(=O)N(CC#N)c1ccc(-c2ccnc(Nc3ccc(N4CCOCC4)cc3)n2)cc1` [Compound 31, N-(cyanomethyl)-N-(4-(2-(4-morpholinophenyl-amino)pyrimidin-4-yl)phenyl)methane-sulfonamide], the IC50 is less than 5 µM in assay [1]; less than 0.5 µM on human JAK3; less than 0.1 µM at human JAK2; less than 5 µM in the assay on CTLL2; less than 5 µM in the assay on BaF3 wild-type cells.

For the molecule `N#CCNC(=O)CNC(=O)c1ccc(-c2ccnc(Nc3ccc(N4CCOCC4)cc3)n2)cc1` [Compound 34, N-(2-(cyanomethylamino)-2-oxoethyl)-4-(2-(4-morpholinophenyl-amino)pyrimidin-4-yl)benzamide], the IC50 in assay [1] was less than 20 µM; at human JAK3, less than 0.5 µM; on human JAK2 it was less than 0.1 µM; with CTLL2, less than 5 µM; with BaF3 wild-type cells it was less than 5 µM.

Take `N#CCNC(=O)c1ccc(-c2ccnc(Nc3ccc(N4CCC(CO)CC4)cc3)n2)cc1` [Compound 42, N-(cyanomethyl)-4-(2-(4-(4-(hydroxymethyl)piperidin-1-yl)phenylamino)pyrimidin-4-yl)benzamide]: the IC50 was less than 5 µM in assay [1]; less than 0.5 µM on human JAK3; less than 0.1 µM on human JAK2; less than 5 µM in the assay on CTLL2; less than 5 µM with BaF3 wild-type cells.

Regarding `N#CCNC(=O)c1ccc(-c2ccnc(Nc3ccc(C(=O)N4CCC(N5CCCC5)CC4)cc3)n2)cc1` [Compound 50, N-(cyanomethyl)-4-(2-(4-(4-(pyrrolidin-1-yl)piperidine-1-carbonyl)phenyl-amino)pyrimidin-4-yl)benzamide], the IC50 was less than 5 µM in assay [1]; less than 1 µM at human JAK3; less than 0.1 µM at human JAK2; greater than 20 µM with CTLL2; less than 20 µM in the assay with BaF3 wild-type cells.

In the case of `N#CCNC(=O)c1ccc(-c2nc(Nc3ccc(N4CCOCC4)cc3)ncc2Cl)cc1` [Compound 53, 4-(5-chloro-2-(4-morpholinophenyl-amino)pyrimidin-4-yl)-N-(cyanomethyl) benzamide], the IC50 is less than 1 µM in assay [1]; less than 0.5 µM on human JAK3; less than 0.1 µM on human JAK2; less than 5 µM in the assay with CTLL2; less than 5 µM with BaF3 wild-type cells.

As for `CC(=O)N1CCN(c2ccc(Nc3nccc(-c4ccc(C(=O)NCC#N)cc4)n3)cc2)CC1` [Compound 55, 4-(2-(4-(4-acetylpiperazin-1-yl)phenylamino)pyrimidin-4-yl)-N-(cyanomethyl) benzamide], the IC50 was less than 1 µM in assay [1]; less than 0.1 µM at human JAK3; less than 0.1 µM at human JAK2; less than 5 µM with CTLL2; less than 5 µM in the assay on BaF3 wild-type cells.

As for `Cc1cnc(Nc2ccc(N3CCC(NS(C)(=O)=O)CC3)cc2)nc1-c1ccc(C(=O)NCC#N)cc1` [Compound 56, N-(cyanomethyl)-4-(5-methyl-2-(4-(4-(methylsulfonamido)piperidin-1-yl)phenylamino)pyrimidin-4-yl)benzamide], the IC50 in assay [1] was less than 1 µM; on human JAK3 it was less than 0.1 µM; on human JAK2, less than 0.1 µM; in the assay on CTLL2, less than 5 µM; in the assay on BaF3 wild-type cells it was less than 5 µM.

For `C#CCN(c1ccc(-c2ccnc(Nc3ccc(N4CCOCC4)cc3)n2)cc1)S(C)(=O)=O` [Compound 57, N-(4-(2-(4-morpholinophenyl-amino)pyrimidin-4-yl)phenyl)-N-(prop-2-ynyl)methane-sulfonamide tosylate], the IC50 in assay [1] was less than 5 µM; on human JAK3 it was less than 1 µM; on human JAK2 it was less than 0.1 µM; in the assay on CTLL2, less than 5 µM; in the assay with BaF3 wild-type cells it was less than 5 µM.

Take `Cc1cnc(Nc2ccc(N3CCC(O)CC3)cc2)nc1-c1ccc(C(=O)NCC#N)cc1` [Compound 58, N-(cyanomethyl)-4-(2-(4-(4-hydroxypiperidin-1-yl)phenylamino)-5-methylpyrimidin-4-yl)benzamide]: the IC50 was less than 1 µM in assay [1]; less than 0.1 µM on human JAK3; less than 0.1 µM at human JAK2; less than 1 µM with CTLL2; less than 5 µM with BaF3 wild-type cells.

For `N#CCNC(=O)c1ccc(-c2ccnc(Nc3ccc(OC4CCNCC4)cc3)n2)cc1` [Compound 59, N-(cyanomethyl)-4-(2-(4-(piperidin-4-yloxy)phenylamino)pyrimidin-4-yl)benzamide], the IC50 in assay [1] was less than 5 µM; at human JAK3 it was less than 0.5 µM; on human JAK2 it was less than 0.1 µM; in the assay with CTLL2, less than 5 µM; in the assay on BaF3 wild-type cells it was less than 1 µM.

As to `N#CCNC(=O)c1ccc(-c2nc(Nc3ccc(N4CCOCC4)cc3)ncc2Br)cc1` [Compound 65, 4-(5-bromo-2-(4-morpholinophenyl-amino)pyrimidin-4-yl)-N-(cyanomethyl) benzamide], the IC50 in assay [1] is less than 1 µM; on human JAK3 it was less than 0.1 µM; at human JAK2, less than 0.1 µM; in the assay with CTLL2, less than 1 µM; in the assay on BaF3 wild-type cells, less than 1 µM.

As for `CCCOCc1cccc(Nc2nccc(-c3ccc(C(=O)NCC#N)cc3)n2)c1` [Compound 75, N-(cyanomethyl)-4-(2-(3-(proproxymethyl)phenylamino)pyrimidin-4-yl)benzamide], the IC50 in assay [1] was less than 5 µM; at human JAK3, less than 1 µM; on human JAK2, less than 0.1 µM; in the assay with CTLL2 it was less than 5 µM; in the assay with BaF3 wild-type cells, less than 5 µM.

In the case of `N#CCC(=O)Nc1ccc(-c2ccnc(Nc3ccc(N4CCOCC4)cc3)n2)cc1C(F)(F)F` [Compound 76, 2-cyano-N-(4-(2-(4-morpholinophenyl-amino)pyrimidin-4-yl)-2-(trifluoromethyl)phenyl)acetamide], the IC50 in assay [1] is less than 5 µM; on human JAK3 it was less than 1 µM; on human JAK2, less than 0.1 µM; with CTLL2, less than 5 µM; with BaF3 wild-type cells, less than 5 µM.

With `C=CCOCc1cc(Nc2nccc(-c3ccc(C(=O)NCC#N)cc3)n2)ccc1N1CCOCC1` [Compound 79], the IC50 in assay [1] is less than 1 µM; at human JAK3, less than 0.5 µM; on human JAK2 it was less than 0.1 µM; in the assay on CTLL2, less than 5 µM; in the assay with BaF3 wild-type cells it was less than 1 µM.
